Results taken from publication PMC11079024, “Identification of a family of species-selective complex I inhibitors as potential anthelmintics” (Nature Communications, 2024).

Biological target: C. elegans (N2) complex I (NADH:ubiquinone oxidoreductase) (Caenorhabditis elegans, UniProt P24887+Q93873+Q94360)
Sequence (Q94360 17-199): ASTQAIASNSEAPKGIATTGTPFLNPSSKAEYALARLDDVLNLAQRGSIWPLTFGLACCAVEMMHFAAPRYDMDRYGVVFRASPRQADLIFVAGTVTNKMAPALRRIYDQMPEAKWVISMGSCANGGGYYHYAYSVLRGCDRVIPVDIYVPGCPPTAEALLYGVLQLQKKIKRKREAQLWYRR
Sequence (P24887 whole entry): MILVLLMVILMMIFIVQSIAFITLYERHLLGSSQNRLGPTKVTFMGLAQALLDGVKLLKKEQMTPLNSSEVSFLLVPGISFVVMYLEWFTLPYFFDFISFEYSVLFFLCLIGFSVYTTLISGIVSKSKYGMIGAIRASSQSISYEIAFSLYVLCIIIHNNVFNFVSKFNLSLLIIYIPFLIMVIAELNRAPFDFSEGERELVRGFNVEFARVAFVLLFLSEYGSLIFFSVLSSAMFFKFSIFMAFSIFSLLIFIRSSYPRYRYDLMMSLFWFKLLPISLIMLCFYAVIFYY
Sequence (Q93873 31-482): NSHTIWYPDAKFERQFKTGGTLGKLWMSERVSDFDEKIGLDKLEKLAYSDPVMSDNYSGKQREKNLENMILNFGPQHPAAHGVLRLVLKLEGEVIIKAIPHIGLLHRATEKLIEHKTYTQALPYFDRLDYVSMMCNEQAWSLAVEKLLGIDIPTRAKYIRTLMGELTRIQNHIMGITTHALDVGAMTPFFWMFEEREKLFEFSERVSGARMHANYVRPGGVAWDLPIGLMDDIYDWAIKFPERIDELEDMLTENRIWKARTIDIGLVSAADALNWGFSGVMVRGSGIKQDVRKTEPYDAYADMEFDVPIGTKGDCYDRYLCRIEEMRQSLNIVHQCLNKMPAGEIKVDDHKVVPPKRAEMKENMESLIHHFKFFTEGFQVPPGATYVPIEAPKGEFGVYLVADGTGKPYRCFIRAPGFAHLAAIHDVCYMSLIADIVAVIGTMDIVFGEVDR
Assay: biochemical
Type: biochemical
Conditions: Dose 0.0001 µM; read-out: C. elegans mitochondrial complex I activity
Outline: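 Mitochondria from liquid-cultured adults were freeze-thawed thrice before the 15-min DCIP-coupled NADH oxidation read.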
Nc1nc2ccccc2n1CCOc1ccc(Br)cc1 [Compound 5842535] gave an activity at 0.0001 µM of 80%. With Cc1cccc(OCCn2c(C)nc3ccccc32)c1 [Compound 6285199] the activity at 0.0001 µM was 94.3%.

Same assay, conditions: Dose 0.0005 µM; read-out: C. elegans mitochondrial complex I activity
Nc1nc2ccccc2n1CCOc1ccc(Br)cc1 [Compound 5842535] gave an activity at 0.0005 µM of 92.9%. For Cc1cccc(OCCn2c(C)nc3ccccc32)c1 [Compound 6285199], the activity at 0.0005 µM was 99.3%.

Same assay, conditions: Dose 0.001 µM; read-out: C. elegans mitochondrial complex I activity
Nc1nc2ccccc2n1CCOc1ccc(Br)cc1 [Compound 5842535] gave an activity at 0.001 µM of 87.5%. Molecule Cc1cccc(OCCn2c(C)nc3ccccc32)c1 [Compound 6285199] has an activity at 0.001 µM of 86.9%.

Same assay, conditions: Dose 0.0025 µM; read-out: C. elegans mitochondrial complex I activity
Nc1nc2ccccc2n1CCOc1ccc(Br)cc1 [Compound 5842535] gave an activity at 0.0025 µM of 88.5%. Cc1cccc(OCCn2c(C)nc3ccccc32)c1 [Compound 6285199] showed an activity at 0.0025 µM of 85.8%.

Same assay, conditions: Dose 0.005 µM; read-out: C. elegans mitochondrial complex I activity
With Nc1nc2ccccc2n1CCOc1ccc(Br)cc1 [Compound 5842535] the activity at 0.005 µM was 89.3%. In the case of Cc1cccc(OCCn2c(C)nc3ccccc32)c1 [Compound 6285199], the activity at 0.005 µM is reported as 87.6%.

Same assay, conditions: Dose 0.013 µM; read-out: C. elegans mitochondrial complex I activity
Molecule Nc1nc2ccccc2n1CCOc1ccc(Br)cc1 [Compound 5842535] has an activity at 0.013 µM of 88.3%. Molecule Cc1cccc(OCCn2c(C)nc3ccccc32)c1 [Compound 6285199] has an activity at 0.013 µM of 90.6%.

Same assay, conditions: Dose 0.025 µM; read-out: C. elegans mitochondrial complex I activity
Molecule Nc1nc2ccccc2n1CCOc1ccc(Br)cc1 [Compound 5842535] has an activity at 0.025 µM of 81.7%. For Cc1cccc(OCCn2c(C)nc3ccccc32)c1 [Compound 6285199], the activity at 0.025 µM was 92.4%.

Same assay, conditions: Dose 0.063 µM; read-out: C. elegans mitochondrial complex I activity
In the case of Nc1nc2ccccc2n1CCOc1ccc(Br)cc1 [Compound 5842535], the activity at 0.063 µM is reported as 79.5%. Cc1cccc(OCCn2c(C)nc3ccccc32)c1 [Compound 6285199] showed an activity at 0.063 µM of 78.1%.

Same assay, conditions: Dose 0.125 µM; read-out: C. elegans mitochondrial complex I activity
Molecule Nc1nc2ccccc2n1CCOc1ccc(Br)cc1 [Compound 5842535] has an activity at 0.125 µM of 81.6%. Cc1cccc(OCCn2c(C)nc3ccccc32)c1 [Compound 6285199] gave an activity at 0.125 µM of 81.6%.

Same assay, conditions: Dose 0.313 µM; read-out: C. elegans mitochondrial complex I activity
Nc1nc2ccccc2n1CCOc1ccc(Br)cc1 [Compound 5842535] showed an activity at 0.313 µM of 76.9%. For Cc1cccc(OCCn2c(C)nc3ccccc32)c1 [Compound 6285199], the activity at 0.313 µM was 54.6%.

Same assay, conditions: Dose 0.625 µM; read-out: C. elegans mitochondrial complex I activity
Nc1nc2ccccc2n1CCOc1ccc(Br)cc1 [Compound 5842535] showed an activity at 0.625 µM of 83.9%. In the case of Cc1cccc(OCCn2c(C)nc3ccccc32)c1 [Compound 6285199], the activity at 0.625 µM is reported as 53.7%.

Same assay, conditions: Dose 1.5 µM; read-out: C. elegans mitochondrial complex I activity
Work on Nc1nc2ccccc2n1CCOc1ccc(Br)cc1 [Compound 5842535] yielded an activity at 1.5 µM of 76.4%. For Cc1cccc(OCCn2c(C)nc3ccccc32)c1 [Compound 6285199], the activity at 1.5 µM was 35.3%.

Same assay, conditions: Dose 3 µM; read-out: C. elegans mitochondrial complex I activity
In the case of Nc1nc2ccccc2n1CCOc1ccc(Br)cc1 [Compound 5842535], the activity at 3 µM is reported as 65%. Molecule Cc1cccc(OCCn2c(C)nc3ccccc32)c1 [Compound 6285199] has an activity at 3 µM of 23.4%.

Same assay, conditions: Dose 15 µM; read-out: C. elegans mitochondrial complex I activity
Nc1nc2ccccc2n1CCOc1ccc(Br)cc1 [Compound 5842535] showed an activity at 15 µM of 17.8%. Cc1cccc(OCCn2c(C)nc3ccccc32)c1 [Compound 6285199] gave an activity at 15 µM of 3.64%.

Same assay, conditions: Dose 37.5 µM; read-out: C. elegans mitochondrial complex I activity
Nc1nc2ccccc2n1CCOc1ccc(Br)cc1 [Compound 5842535] showed an activity at 37.5 µM of 0.13%. Molecule Cc1cccc(OCCn2c(C)nc3ccccc32)c1 [Compound 6285199] has an activity at 37.5 µM of 1.37%.

Same assay, conditions: Dose 75 µM; read-out: C. elegans mitochondrial complex I activity
Work on Nc1nc2ccccc2n1CCOc1ccc(Br)cc1 [Compound 5842535] yielded an activity at 75 µM of 0%. Cc1cccc(OCCn2c(C)nc3ccccc32)c1 [Compound 6285199] gave an activity at 75 µM of 1.88%.

Same assay, conditions: in vitro complex I dose response on C. elegans mitochondria; average of at least two biological replicates; fit in R (DRC); read-out: IC50 C. elegans complex I
With Cc1nc2ccccc2n1Cc1ccccc1Cl [Compound 6707368] the IC50 was 560 nM. Nc1nc2ccccc2n1CCOc1ccc(Br)cc1 [Compound 5842535] gave an IC50 of 6200 nM. For Cc1cccc(OCCn2c(C)nc3ccccc32)c1 [Compound 6285199], the IC50 was 840 nM.

Same assay, conditions: log10 of IC50 in µM; C. elegans mitochondria
In the case of Cc1nc2ccccc2n1Cc1ccccc1Cl [Compound 6707368], the “Log IC50 C. elegans complex I” value is reported as -0.25 µM. For Nc1nc2ccccc2n1CCOc1ccc(Br)cc1 [Compound 5842535], the “Log IC50 C. elegans complex I” value was 0.79 µM. In the case of Cc1cccc(OCCn2c(C)nc3ccccc32)c1 [Compound 6285199], the “Log IC50 C. elegans complex I” value is reported as -0.0757 µM.

Same assay, conditions: wild-type (N2) mitochondria; read-out: C. elegans Complex I IC50
In the case of Cc1nc2ccccc2n1Cc1ccccc1Cl [Compound 6707368], the IC50 is reported as 560 nM.

Same assay, conditions: wild-type C. elegans mitochondria; estimated from fitted dose-response curves; read-out: C. elegans Complex I IC50
For Cc1nc2ccccc2n1Cc1ccccc1Cl [Compound 6707368], the IC50 was 560 nM. Cc1cccc(OCCn2c(C)nc3ccccc32)c1 [Compound 6285199] gave an IC50 of 840 nM.

Same assay, conditions: wild-type C. elegans mitochondria; read-out: C. elegans Complex I IC50
Molecule Nc1nc2ccccc2n1CCOc1ccc(Br)cc1 [Compound 5842535] has an IC50 of 6200 nM.

Test system: L1 wild-type C. elegans
Assay: not given
Conditions: 50 μM; […]; KCN survival assay; hit = relative motility below 0.25
With Cc1nc2ccccc2n1Cc1ccccc1Cl [Compound 6707368] the “Screen "Hit"” value was “Y (hits were identified as compounds that reduced relative motility below 0.25 (75% reduction))”.

Same assay, conditions: 50 μM; […]; hit = relative motility below 0.25 3 hours after removal of KCN
For Nc1nc2ccccc2n1CCOc1ccc(Br)cc1 [Compound 5842535], the “Screen "Hit"” value was “Y (hits were identified as compounds that reduced relative motility below 0.25 (75% reduction))”. In the case of Cc1cccc(OCCn2c(C)nc3ccccc32)c1 [Compound 6285199], the “Screen "Hit"” value is reported as “Y (hits were identified as compounds that reduced relative motility below 0.25 (75% reduction))”.

Same assay, conditions: Dose 0.2 µM; mean of at least three biological replicates
For Nc1nc2ccccc2n1CCOc1ccc(Br)cc1 [Compound 5842535], the “C. elegans KCN Survival” value was 1.013. For Cc1cccc(OCCn2c(C)nc3ccccc32)c1 [Compound 6285199], the “C. elegans KCN Survival” value was 1.002.

Same assay, conditions: Dose 0.39 µM
For Nc1nc2ccccc2n1CCOc1ccc(Br)cc1 [Compound 5842535], the “C. elegans KCN Survival” value was 1.010. In the case of Cc1cccc(OCCn2c(C)nc3ccccc32)c1 [Compound 6285199], the “C. elegans KCN Survival” value is reported as 1.011.

Same assay, conditions: Dose 1.56 µM
With Nc1nc2ccccc2n1CCOc1ccc(Br)cc1 [Compound 5842535] the “C. elegans KCN Survival” value was 1.035. In the case of Cc1cccc(OCCn2c(C)nc3ccccc32)c1 [Compound 6285199], the “C. elegans KCN Survival” value is reported as 0.994.

Same assay, conditions: Dose 3.13 µM
With Nc1nc2ccccc2n1CCOc1ccc(Br)cc1 [Compound 5842535] the “C. elegans KCN Survival” value was 1.110. With Cc1cccc(OCCn2c(C)nc3ccccc32)c1 [Compound 6285199] the “C. elegans KCN Survival” value was 1.093.

Same assay, conditions: Dose 6.25 µM
For Nc1nc2ccccc2n1CCOc1ccc(Br)cc1 [Compound 5842535], the “C. elegans KCN Survival” value was 1.056. In the case of Cc1cccc(OCCn2c(C)nc3ccccc32)c1 [Compound 6285199], the “C. elegans KCN Survival” value is reported as 0.980.

Same assay, conditions: Dose 12.5 µM
For Nc1nc2ccccc2n1CCOc1ccc(Br)cc1 [Compound 5842535], the “C. elegans KCN Survival” value was 0.989. For Cc1cccc(OCCn2c(C)nc3ccccc32)c1 [Compound 6285199], the “C. elegans KCN Survival” value was 0.810.

Same assay, conditions: Dose 25 µM
In the case of Nc1nc2ccccc2n1CCOc1ccc(Br)cc1 [Compound 5842535], the “C. elegans KCN Survival” value is reported as 0.572. In the case of Cc1cccc(OCCn2c(C)nc3ccccc32)c1 [Compound 6285199], the “C. elegans KCN Survival” value is reported as 0.165.

Same assay, conditions: Dose 50 µM
For Nc1nc2ccccc2n1CCOc1ccc(Br)cc1 [Compound 5842535], the “C. elegans KCN Survival” value was 0.188. With Cc1cccc(OCCn2c(C)nc3ccccc32)c1 [Compound 6285199] the “C. elegans KCN Survival” value was 0.143.

Same assay, conditions: Dose 100 µM
In the case of Nc1nc2ccccc2n1CCOc1ccc(Br)cc1 [Compound 5842535], the “C. elegans KCN Survival” value is reported as 0.200. For Cc1cccc(OCCn2c(C)nc3ccccc32)c1 [Compound 6285199], the “C. elegans KCN Survival” value was 0.167.

Test system: not listed separately
Assay: in vitro
Conditions: human
For Cc1nc2ccccc2n1Cc1ccccc1Cl [Compound 6707368], the CC50 at 2 days was > 100000 nM. Cc1cccc(OCCn2c(C)nc3ccccc32)c1 [Compound 6285199] gave a CC50 at 2 days of 97700 nM.

Same assay, conditions: human, HEK293 Cell Viability Assay LC50, HEK293 cells; estimated from fitted dose-response curves
Work on Nc1nc2ccccc2n1CCOc1ccc(Br)cc1 [Compound 5842535] yielded a CC50 at 2 days of 17300 nM.

Same assay, conditions: human, HEK293 cells (Flp-In-293), HEK293 viability, Dose 3.13 µM
Molecule Nc1nc2ccccc2n1CCOc1ccc(Br)cc1 [Compound 5842535] has a viability at 2 days, 3.13 µM of 79.2%. Molecule Cc1cccc(OCCn2c(C)nc3ccccc32)c1 [Compound 6285199] has a viability at 2 days, 3.13 µM of 100%.

Same assay, conditions: human, HEK293 cells (Flp-In-293), HEK293 viability, Dose 6.25 µM
In the case of Nc1nc2ccccc2n1CCOc1ccc(Br)cc1 [Compound 5842535], the viability at 2 days, 6.25 µM is reported as 82.9%. In the case of Cc1cccc(OCCn2c(C)nc3ccccc32)c1 [Compound 6285199], the viability at 2 days, 6.25 µM is reported as 100%.

Same assay, conditions: human, HEK293 cells (Flp-In-293), HEK293 viability, Dose 12.5 µM
With Nc1nc2ccccc2n1CCOc1ccc(Br)cc1 [Compound 5842535] the viability at 2 days, 12.5 µM was 67.8%. For Cc1cccc(OCCn2c(C)nc3ccccc32)c1 [Compound 6285199], the viability at 2 days, 12.5 µM was 100%.

Same assay, conditions: human, HEK293 cells (Flp-In-293), HEK293 viability, Dose 25 µM
Nc1nc2ccccc2n1CCOc1ccc(Br)cc1 [Compound 5842535] showed a viability at 2 days, 25 µM of 11%. Molecule Cc1cccc(OCCn2c(C)nc3ccccc32)c1 [Compound 6285199] has a viability at 2 days, 25 µM of 100%.

Same assay, conditions: human, HEK293 cells (Flp-In-293), HEK293 viability, Dose 50 µM
In the case of Nc1nc2ccccc2n1CCOc1ccc(Br)cc1 [Compound 5842535], the viability at 2 days, 50 µM is reported as 6.3%. Cc1cccc(OCCn2c(C)nc3ccccc32)c1 [Compound 6285199] gave a viability at 2 days, 50 µM of 98.3%.

Same assay, conditions: human, HEK293 cells (Flp-In-293), HEK293 viability, Dose 100 µM
Work on Nc1nc2ccccc2n1CCOc1ccc(Br)cc1 [Compound 5842535] yielded a viability at 2 days, 100 µM of 6.3%. With Cc1cccc(OCCn2c(C)nc3ccccc32)c1 [Compound 6285199] the viability at 2 days, 100 µM was 46.5%.
